How the values were obtained:
[1] = tested on: patients with non-ST elevation acute coronary syndrome; assay: MERLIN-TIMI 36: arrhythmias on continuous ECG (Holter) recording, first 7 days; format: in vivo, human
Protocol: The safety endpoint data for incidence of clinically significant arrhythmias during 7 day Holter monitoring from MERLIN-TIMI 36 is shown in Table 24 below.
Continuous ECG (Holter) recording was performed for the first 7 days after randomization. Because of the known prolongation of the QT interval with ranolazine, analyses of a prespecified set of arrhythmias were a major objective of the trial. All arrhythmias were evaluated in the TIMI ECG Core Laboratory by cardiologists blinded to treatment and outcomes.
Continuous ECG (cECG or Holter) recording was performed for the first 7 days after randomization. Prespecified arrhythmia analyses were evaluated by a core laboratory blinded to treatment and outcomes.

[2] = tested on: patients with non-ST elevation acute coronary syndrome; assay: as above; format: in vivo, human; details: group allocated to ranolazine
[3] = tested on: patients with non-ST elevation acute coronary syndrome; assay: MERLIN-TIMI 36: safety endpoints (death from any cause, symptomatic documented arrhythmias, CV hospitalization); format: in vivo
[4] = tested on: patients with non-ST elevation acute coronary syndrome; assay: MERLIN-TIMI 36: Seattle Angina Questionnaire scores at 4 months; format: in vivo, human
Text: The MERLIN-TIMI 36 secondary efficacy endpoint (ITT) Seattle Angina Questionnaire scores at 4 months for anginal frequency scale are shown in Table 16 below, and scores for physical limitation scale are shown in Table 17 below.

[5] = tested on: patients with non-ST elevation acute coronary syndrome; assay: MERLIN-TIMI 36: ischemia on Holter / continuous ECG (CECG); format: in vivo, human; details: >72 hours after randomization, ranolazine vs placebo
Protocol: At randomization, 6355 patients (99%) had 3-lead CECG monitoring initiated (median duration 6.9 days). The primary CECG endpoint was the rate of ST dep>1 mm from baseline lasting >1 minute with heart rate at onset <100 bpm. Exploratory analyses using ST dep>0.5 mm were also performed.

[6] = tested on: patients with NSTE-ACS who underwent PCI; assay: MERLIN-TIMI 36 post-hoc analysis: VT, CV death and sudden cardiac death after PCI; format: in vivo, human; details: n = 737
Protocol: The incidence of ventricular tachyarrhythmias after percutaneous coronary intervention (PCI) is low, but has been associated with worse clinical outcomes.
The MERLIN-TIMI 36 trial randomized 6560 pts to RAN or placebo (PLA) stratified according to whether an early invasive or conservative medical strategy was planned. The target RAN dose was 1000 mg bid and could be titrated downward at the investigator's discretion. Continuous Holter monitoring was performed for the first 7 days after randomization. Patients (RAN=737, PLA=754) with at least 2 hrs of evaluable Holter data from start of PCI or patients with at least 1 hour of evaluable Holter data if Holter was restarted within 1 hour from start of PCI were included in this post-hoc analysis. The incidence of non-sustained VT episodes (≧100 bpm lasting at least 8 beats but <30 sec) post PCI was compared using Cochran-Mantel-Haenzel test for general association, stratified by intent for early invasive strategy.

women with NSTE ACS = assay: MERLIN-TIMI 36: outcomes in women with NSTE ACS; format: in vivo, human; details: ranolazine vs placebo
[7] = tested on: patients with non-ST elevation ACS; assay: MERLIN-TIMI 36: HbA1c and hyperglycemia; format: in vivo, human
Text: The proportion of patients in the MERLIN-TIMI 36 study with HBA1C ≧7% is shown in Table 28 below (and see FIG. 15).
The proportion of patients with HBA1C ≧7% (with diabetes or no diabetes) at various times during the MERLIN-TIMI 36 study is shown in Table 29 below (and FIG. 16).
HbA1c data are reported as least-square means. Patients categorized as “diabetic” had been diagnosed as diabetic before or at the time of randomization. Patients categorized as “no diabetes” had not been diagnosed as diabetic before or at the time of randomization. Some patients characterized as “no diabetes” may have been diagnosed as “diabetic” during the trial; however, these patients are still listed in the “no diabetes” category in FIG. 4B.

[8] = PCI patients, average follow-up ~1 year
[9] = within 2 hours from start of PCI
[10] = Baseline (in-hospital visit prior to randomization), all patients dosed n = 3268
[11] = Diabetes at enrollment (n = 1098), Baseline
[12] = Diabetes at enrollment (n = 1098), Final Visit
[13] = Diabetes at enrollment (n = 1098), Month 4
[14] = Diabetes at enrollment (n = 1098), Month 8
[15] = Diabetes at enrollment (n = 1098), Month 16
[16] = Final Visit, all patients dosed n = 3268
[17] = Month 4, all patients dosed n = 3268
[18] = Month 8, all patients dosed n = 3268
[19] = Month 16, all patients dosed n = 3268
[20] = No Diabetes at enrollment (n = 2170), Baseline
[21] = No Diabetes at enrollment (n = 2170), Final Visit
[22] = No Diabetes at enrollment (n = 2170), Month 4
[23] = No Diabetes at enrollment (n = 2170), Month 8
[24] = No Diabetes at enrollment (n = 2170), Month 16

## COc1ccccc1OCC(O)CN1CCN(CC(=O)Nc2c(C)cccc2C)CC1 (racemic) [Ranolazine, (±)-N-(2,6-dimethylphenyl)-4-[2-hydroxy-3-(2-methoxyphenoxy)-propyl]-1-piperazineacetamide]
[1]; Example 9, patients with valid cECG recording
  Supraventricular tachycardia on cECG, no. of patients: 1413
[1]; all patients dosed, n = 3268
  Any clinically significant arrhythmia during 7 day Holter, incidence: 71.3%
  Any clinically significant arrhythmia during 7 day Holter, no. of pts: 2330
  Bradycardic episode during 7 day Holter, incidence: 38.5%
  Bradycardic episode during 7 day Holter, no. of pts: 1257
  New onset atrial fibrillation during 7 day Holter, incidence: 1.7%
  New onset atrial fibrillation during 7 day Holter, no. of pts: 55
  Supraventricular tachycardia (any SVT >=120 bpm) during 7 day Holter, incidence: 43.2%
  Supraventricular tachycardia (any SVT >=120 bpm) during 7 day Holter, no. of pts: 1413
  Ventricular tachycardia (any VT >= 100 bpm >=3 beats) during 7 day Holter, incidence: 29.0%
  Ventricular tachycardia (any VT >= 100 bpm >=3 beats) during 7 day Holter, no. of pts: 948
[1]; placebo vs ranolazine
  Δ in patients with Sustained VT (>=30 sec): 0
[1]; ranolazine vs placebo
  Δ (%) Polymorphic VT >= 8 beats: −21%
  Δ (%) VT ≧ 3 beats (≧100 b/m): −17%
  Δ (%) VT ≧ 4 beats (≧100 b/m): −30%
  Δ (%) VT ≧ 8 beats (<30 sec): −37%
[2]
  Clinically reported sudden cardiac death, no. of patients: 56
[3]; all patients dosed, n = 3268
  Death or CV hospitalization endpoint-defining events: CV hospitalization, % of pts with events: 89.3%
  Death or CV hospitalization endpoint-defining events: CV hospitalization, no. of pts: 926
  Death or CV hospitalization endpoint-defining events: Death, % of pts with events: 10.7%
  Death or CV hospitalization endpoint-defining events: Death, no. of pts: 111
[3]; human, in vivo
  Cardiac arrest NOS, incidence: 0.3%
  Cardiac arrest NOS, no. of pts: 10
  Symptomatic documented arrhythmias - overall, incidence: 3.0%
  Symptomatic documented arrhythmias - overall, no. of pts: 99
  Symptomatic documented bradyarrhythmias, incidence: 1.0%
  Symptomatic documented bradyarrhythmias, no. of pts: 34
  Symptomatic documented supraventricular arrhythmias, incidence: 1.2%
  Symptomatic documented supraventricular arrhythmias, no. of pts: 38
  Symptomatic documented ventricular arrhythmias, incidence: 0.7%
  Symptomatic documented ventricular arrhythmias, no. of pts: 22
[3]; ranolazine vs placebo
  HR, total mortality: 0.99
[4]; N 2339
  SAQ Physical Limitation Scale score, 25th percentile-75th percentile: 55.6-94.4
  SAQ Physical Limitation Scale score, Min-Max: 0-100
[4]; N 2558
  SAQ Anginal Frequency Scale score, 25th percentile-75th percentile: 80-100
  SAQ Anginal Frequency Scale score, Median: 100
  SAQ Anginal Frequency Scale score, Min-Max: 0-100
[5]
  RR, CECG events: 0.86
[6]; [8]
  CVD (cardiovascular death) - anytime, incidence: 0.9%
  CVD (cardiovascular death) - anytime, no. of patients: 7
  SCD (sudden cardiac death) - anytime, incidence: 0.1%
  SCD (sudden cardiac death) - anytime, no. of patients: 1
[6]; PCI patients
  CVD (cardiovascular death) - 30 days, incidence: 0.5%
  CVD (cardiovascular death) - 30 days, no. of patients: 4
  SCD (sudden cardiac death) - 30 days, incidence: 0.1%
  SCD (sudden cardiac death) - 30 days, no. of patients: 1
[6]; [9]
  VT ≧ 8 beats, % of patients with at least 1 episode: 1.1%
  VT ≧ 8 beats, no. of patients with at least 1 episode: 8
Women with NSTE ACS
  HR, worsening angina: 0.61
[7]; [10]
  Patients with HbA1C ≧7%, no.: 655
  Proportion of patients with HbA1C ≧7%: 24%
[7]; [11]
  Patients with HbA1C ≧7%, no.: 542
  Proportion of patients with HbA1C ≧7%: 57%
[7]; [12]
  Patients with HbA1C ≧7%, no.: 324
  Proportion of patients with HbA1C ≧7%: 42%
[7]; [13]
  Patients with HbA1C ≧7%, no.: 326
  Proportion of patients with HbA1C ≧7%: 41%
[7]; [14]
  Patients with HbA1C ≧7%, no.: 263
  Proportion of patients with HbA1C ≧7%: 44%
[7]; [15]
  Patients with HbA1C ≧7%, no.: 63
  Proportion of patients with HbA1C ≧7%: 48%
[7]; [16]
  Patients with HbA1C ≧7%, no.: 416
  Proportion of patients with HbA1C ≧7%: 17%
[7]; [17]
  Patients with HbA1C ≧7%, no.: 404
  Proportion of patients with HbA1C ≧7%: 17%
[7]; [18]
  Patients with HbA1C ≧7%, no.: 335
  Proportion of patients with HbA1C ≧7%: 18%
[7]; [19]
  Patients with HbA1C ≧7%, no.: 84
  Proportion of patients with HbA1C ≧7%: 20%
[7]; [20]
  Patients with HbA1C ≧7%, no.: 113
  Proportion of patients with HbA1C ≧7%: 6%
[7]; [21]
  Patients with HbA1C ≧7%, no.: 92
  Proportion of patients with HbA1C ≧7%: 6%
[7]; [22]
  Patients with HbA1C ≧7%, no.: 78
  Proportion of patients with HbA1C ≧7%: 5%
[7]; [23]
  Patients with HbA1C ≧7%, no.: 72
  Proportion of patients with HbA1C ≧7%: 6%
[7]; [24]
  Patients with HbA1C ≧7%, no.: 21
  Proportion of patients with HbA1C ≧7%: 7%

Reference: patent publication US20090312340A1 (priority 2007, published 2009)
